System: AR 1.0 cells
Test: Drug accumulation assay: daunorubicin accumulation in AR 1.0 cells
Format: cell-based
Conditions: Mus musculus, 100% = accumulation with verapamil 100 μM, 1 hr, 37° C.
Description: The EMT6 mouse mammary carcinoma cell line and the MDR resistant subline AR 1.0 were cultured in RPMI 1640 medium containing 10% foetal calf serum and 2 mM glutamine at 37° C. in 5% CO2. Cells were passaged between 1 in 200 and 1 in 2000 in the case of the parental cell line and between 1 in 20 and 1 in 200 in the case of the MDR resistant subline, after trypsinisation (0.25% trypsin, 0.2 gl^-1, EDTA).
AR 1.0 cells were seeded 48 hours prior to assay into 96 well opaque culture plates (Canberra Packard).

| Compound | IC50 [nM] |
| --- | --- |
| COc1cc2c(cc1OC)CN(CCNC(=O)c1ccccc1NC(=O)c1ccc3c(c1)OCO3)CC2 [compound 9302, Benzo[1,3]dioxole-5-carboxylic acid {2-[2-(6,7-dimethoxy-3,4-dihydro-1H-isoquinolin-2-yl)-ethylcarbamoyl]-phenyl}-amide] | 5000 |
| COc1cc2c(cc1OC)CN(CCNC(=O)c1ccc(Cl)cc1NC(=O)c1ccc(C(C)C)cc1)CC2 [compound 9350, 2-(4-Isopropyl-benzoylamino)-N-[2-(6,7-dimethoxy-3,4-dihydro-1H-isoquinolin-2-yl)-ethyl]-4-chioro-benzamide] | 800 |
| COc1cc2c(cc1OC)CN(CCNC(=O)c1ccccc1NC(=O)c1cccnc1)CC2 [compound 9359, N-{2-[2-(6,7-Dimethoxy-3,4-dihydro-1H-isoquinolin-2-yl)-ethylcarbamoyl]-phenyl}-nicotinamide] | > 10000 |
| COc1cc2c(cc1OC)CN(CCNC(=O)c1ccccc1NC(=O)c1ccccn1)CC2 [compound 9377, Pyridine-2-carboxylic acid {2-[2-(6,7-dimethoxy-3,4-dihydro-1H-isoquinolin-2-yl)-ethylcarbamoyl]-phenyl}-amide] | 5500 |
| COc1cc2c(cc1OC)CN(CCNC(=O)c1ccccc1NC(=O)c1ccncc1)CC2 [compound 9384, N-{2-[2-(6,7-Dimethoxy-3,4-dihydro-1H-isoquinolin-2-yl)-ethylcarbamoyl]-phenyl}-isonicotinamide] | > 10000 |
| COc1cc2c(cc1OC)CN(CCNC(=O)c1ccccc1NC(=O)c1cnccn1)CC2 [compound 9391, Pyrazine-2-carboxylic acid {2-[2-(6,7-dimethoxy-3,4-dihydro-1H-isoquinolin-2-yl)-ethylcarbamoyl]-phenyl}-amide] | > 10000 |
| COc1cc2c(cc1OC)CN(CCNC(=O)c1ccccc1NC(=O)c1cnc3ccccc3c1)CC2 [compound 9397, Quinoline-3-carboxylic acid {2-[2-(6,7 dimethoxy-3,4-dihydro-1H-isoquinolin-2-yl)-ethylcarbamoyl]-phenyl}-amide] | 10000 |
| COc1cc2c(cc1OC)CN(CCNC(=O)c1cccc(C)c1NC(=O)c1ccc(C(C)C)cc1)CC2 [compound 9398, 2-(4-Isopropyl-benzoylamino)-N-[2-(6,7-dimethoxy-3,4-dihydro-1H-isoquinolin-2-yl)-ethyl]-3-methyl-benzamide] | 1500 |
| COc1cc2c(cc1OC)CN(CCNC(=O)c1cccc(OC)c1NC(=O)c1ccc(C(C)C)cc1)CC2 [compound 9399, 2-(4-Isopropyl-benzoylamino)-N-[2-(6,7-dimethoxy-3,4-dihydro-1H-isoquinolin-2-yl)-ethyl]-3-methoxy-benzamide] | 5000 |
| COc1cc2c(cc1OC)CN(CCNC(=O)c1cccc(Cl)c1NC(=O)c1ccc(C(C)C)cc1)CC2 [compound 9401, 2-(4-Isopropyl-benzoylamino)-N-[2-(6,7-dimethoxy-3,dihydro-1H-isoquinolin-2-yl)-ethyl]-3-chioro-benzamide] | 3000 |
| COc1cc2c(cc1OC)CN(CCNC(=O)c1cc3ccccc3cc1NC(=O)c1ccc(C(C)C)cc1)CC2 [compound 9410, 3-(4-Isopropyl-benzoylamino)-naphthalene-2-carboxylic acid [2-(6,7-dimethoxy-3,4-dihydro-1H-isoquinolin-2-yl)-ethyl]-amide] | 3000 |
| O=C(Nc1ccccc1C(=O)NCCN1CCc2ccccc2C1)c1ccc(C2CCCCC2)cc1 [compound 9479, 2-(4-Cyclohexyl-benzoylamino)-N-[2-(3,4-dihydro-1H-isoquinolin-2-yl)-ethyl]-benzamide] | 2100 |
| COc1cc2c(cc1OC)CN(CCc1ccc(NC(=O)c3c(C)cccc3NC(=O)c3ccccc3)cc1)CC2 [compound 9512, 2-Benzoylamino-N-{4-[2-(617-dimethoxy-3,4-dihydro-1H-isoquinolin-2-yl)-ethyl]-phenyl}-6-methyl-benzamide] | 3900 |
| COc1cc2c(cc1OC)CN(CCc1ccc(NC(=O)c3ccccc3NC(=O)c3ccc(F)cc3F)cc1)CC2 [compound 9513, 2-(2,4-Difluoro-benzoylamino)-N-{4-[2-(6,7-dimethoxy-3,4-dihydro-1H-isoquinolin-2-yl)-ethyl]-phenyl}-benzamide] | 200 |
| COc1cc2c(cc1OC)CN(CCc1ccc(NC(=O)c3ccccc3NC(=O)c3cc4ccccc4[nH]3)cc1)CC2 [compound 9515, 1H-Indole-2-carboxylic acid (2-{4-[2-(6,7-dimethoxy-3,4-dihydro-1H-isoquinolin-2-yl)-ethyl}-phenylcarbamoyl}-phenyl)-amide] | 1200 |
| COc1cc2c(cc1OC)CN(CCc1ccc(NC(=O)c3ccccc3NC(=O)c3ccccc3C(F)(F)F)cc1)CC2 [compound 9523, 2-(2-Trifluoromethyl-benzoylamino)-N-{4-[2-(6,7-dimethoxy-3,4-dihydro-1H-isoquinolin-2-yl)-ethyl]-phenyl}-benzamide] | 1600 |

| Compound | IC50 [nM] |
| --- | --- |
| COc1cc2c(cc1OC)CN(CCc1ccc(NC(=O)c3ccccc3NC(=O)c3cccc(C(F)(F)F)c3)cc1)CC2 [compound 9524] | 1000 |
| COc1cc2c(cc1OC)CN(CCc1ccc(NC(=O)c3ccccc3NC(=O)c3ccoc3)cc1)CC2 [compound 9526, Furan-3-carboxylic acid (2-{4-[2-(6,7-dimethoxy-3,4-dihydro-1H-isoquinolin-2-yl)-ethyl]-phenylcarbamoyl}-phenyl)-amide] | 1400 |
| COc1cc2c(cc1OC)CN(CCc1ccc(NC(=O)c3ccccc3NC(=O)c3cccc(N(C)C)c3)cc1)CC2 [compound 9556, 2-(3-Dimethylamino-benzoylamino)-N-{4-[2-(6,7-dimethoxy-3,4-dihydro-1H-isoquinolin-2-yl)-ethyl]-phenyl}-benzamide] | 860 |
| COc1cc2c(cc1OC)CN(CCc1ccc(NC(=O)c3ccccc3NC(=O)c3ccc(O)cc3)cc1)CC2 [compound 9559, 2-(4-Hydroxy-benzoylamino)-N-{4-[2-(6,7-dimethoxy-3,4-dihydro-1H-isoquinolin-2-yl)-ethyl]-phenyl}-benzamide] | 2060 |
| COc1ccc(C(=O)Nc2ccccc2C(=O)Nc2ccc(CCN3CCc4cc(OC)c(OC)cc4C3)cc2)cn1 [compound 9582, N-(2-{4-[2-(6,7-Dimethoxy-3,4-dihydro-1H-isoquinolin-2-yl)-ethyl]-phenylcarbamoyl}-phenyl)-6-methoxy-nicotinamide] | 1270 |
| COc1cc2c(cc1OC)CN(CCc1ccc(NC(=O)c3ccccc3NC(=O)c3cc4ccccc4nc3Cl)cc1)CC2 [compound 9591, 2-Chloro-quinoline-3-carboxylic acid (2-{4-[2-(6,7-dimethoxy-3,4-dihydro-1H-isoquinolin-2-yl)-ethyl]-phenylcarbamoyl}-phenyl)-amide] | 425 |
| COc1cc2c(cc1OC)CN(CCc1ccc(NC(=O)c3ccccc3NC(=O)c3cnc4cc(C(F)(F)F)ccc4c3O)cc1)CC2 [compound 9592, 4-Hydroxy-7-trifluoromethyl-quinoline-3-carboxylic acid (2-{4-[2-(6,7-dimethoxy-3,4-dihydro-1H-isoquinolin-2-yl)-ethyl]-phenylcarbamoyl}-phenyl)-amide] | > 10000 |
| COc1cc2c(cc1OC)CN(CCc1ccc(NC(=O)c3ccccc3NC(=O)c3cnc4ccccc4c3O)cc1)CC2 [compound 9606, 4-Hydroxy-quinoline-3-carboxylic acid (2-{4-[2-(6,7-dimethoxy-3,4-dihydro-1H-isoquinolin-2-yl)-ethyl]-phenylcarbamoyl}-phenyl)-amide] | > 10000 |
| COc1cc2c(cc1OC)CN(CCOc1ccc(NC(=O)c3ccccc3NC(=O)c3cnc4ccccc4c3)cc1)CC2 [compound 9623, Quinoline-3-carboxylic acid (2-{4-[2-(6,7-dimethoxy-3,4-dihydro-1H-isoquinolin-2-yl)-ethoxy]-phenylcarbamoyl}-phenyl)-amide] | 1890 |
| O=C(Nc1ccccc1C(=O)Nc1ccc(CCN2CCc3cc(Cl)c(Cl)cc3C2)cc1)c1cnc2ccccc2c1 [compound 9628, Quinoline-3-carboxylic acid (2-{4-[2-(6,7-dichloro-3,4-dihydro-1H-isoquinolin-2-yl)-ethyl]-phenylcarbamoyl}-phenyl)-amide] | 2270 |
| O=C(Nc1ccccc1C(=O)Nc1ccc(CCN2CCc3ccc(Cl)c(Cl)c3C2)cc1)c1cnc2ccccc2c1 [compound 9629, Quinoline-3-carboxylic acid (2-{4-[2-(7,8-dichloro-3,4-dihydro-1H-isoquinolin-2-yl)-ethyl]-phenylcarbamoyl}-phenyl)-amide] | > 10000 |
| O=C(Nc1ccccc1C(=O)Nc1ccc(CCN2CCc3ccc([N+](=O)[O-])cc3C2)cc1)c1cnc2ccccc2c1 [compound 9634, Quinoline-3-carboxylic acid (2-{4-[2-(7-nitro-3,4-dihydro-1H-isoquinolin-2-yl)-ethyl]-phenylcarbamoyl}-phenyl)-amide] | 6960 |
| COc1cc2c(cc1OC)CN(CCc1cccc(NC(=O)c3ccccc3NC(=O)c3cnc(C)cn3)c1)CC2 [compound 9653, 5-Methyl-pyrazine-2-carboxylic acid (2-{3-[2-(6,7-dimethoxy-3,4-dihydro-1H-isoquinolin-2-yl)-ethyl]-phenylcarbamoyl}-phenyl)-amide] | 490 |
| COc1cc2c(cc1OC)CN(CC(C)c1ccc(NC(=O)c3ccccc3NC(=O)c3cnc4ccccc4c3)cc1)CC2 (stereo not shown) [compound 9654, Quinoline-3-carboxylic acid (2-{4-[2-(6,7-dimethoxy-3,4-dihydro-1H-isoquinolin-2-yl)-1-methyl-ethyl]-phenylcarbamoyl}-phenyl)-amide] | 135 |
| CCCCOc1cc(CN(C)CCc2ccc(NC(=O)c3cc(OC)c(OC)cc3NC(=O)c3cnc4ccccc4c3)cc2)ccc1OC [compound 9656, Quinoline-3-carboxylic acid [2-(4-{2-[(3-butoxy-4-methoxy-benzyl)-methyl-amino]-ethyl}-phenylcarbamoyl)-4,5-dimethoxy-phenyl]-amide] | 188 |

— US6218393A, “Anthranilic acid derivatives as multi drug resistance modulators” (priority 1997, dated 2001)
